Assay results: ChEMBL document CHEMBL6071160, “Identification of a novel 10-hydroxyevodiamine prodrug as a potent topoisomerase inhibitor with improved aqueous solubility for treatment of hepatocellular carcinoma” (Eur J Med Chem, 2024)
≈ marks a conversion by molar mass, not a printed value.

Legend:
[1] = Aqueous solubility of the compound […] measured after 72 hrs in shaking by HPLC analysis; type: physicochemical
Huh-7 [2] = assay: Antiproliferative activity against human Huh-7 cells assessed as inhibition of cell proliferation incubated for 72 hrs by MTT assay; type: functional, cell-based; details: Huh-7, 72 h
Huh-7 [3] = assay: Induction of apoptosis in human Huh-7 cells assessed as viable cells at 80 nM measured after 24 hrs by Annexin-V-FITC/PI analysis (reference value: 97.46%); type: functional; details: read-out: Activity
Huh-7 [4] = assay: Induction of apoptosis in human Huh-7 cells assessed as ROS generation by measuring DCFH2-DA stained cells at 80 nM measured after 24 hrs […] (reference value: 0.45%); type: functional
Huh-7 [5] = assay: Induction of apoptosis in human Huh-7 cells assessed as necrotic cells at 80 nM measured after 24 hrs by Annexin-V-FITC/PI analysis (reference value: 0.27%); type: functional
SK-HEP1 [6] = assay: Induction of apoptosis in human SK-HEP1 cells assessed as ROS generation by measuring DCFH2-DA stained cells at 80 nM measured after 24 hrs […] (reference value: 0.14%); type: functional
SK-HEP1 [7] = assay: Induction of apoptosis in human SK-HEP1 cells assessed as late apoptotic cells at 80 nM measured after 24 hrs by Annexin-V-FITC/PI analysis (reference value: 0.64%); type: functional
Huh-7 [8] = assay: Induction of cell cycle arrest in human Huh-7 cells assessed as accumulation of cells at S phase 80 nM measured after 24 hrs by flow cytometric assay (reference value: 23.33%); type: functional
Huh-7 [9] = assay: Induction of apoptosis in human Huh-7 cells assessed as loss of mitochondrial membrane potential by measuring JC-1 stained cells at 80 nM measured after 24 hrs by JC-1 staining based flow cytometry (reference value: 2.27%); type: functional
SK-HEP1 [10] = assay: Induction of apoptosis in human SK-HEP1 cells assessed as viable cells at 80 nM measured after 24 hrs by Annexin-V-FITC/PI analysis (reference value: 97.20%); type: functional; details: read-out: Activity
SK-HEP1 [11] = assay: Induction of apoptosis in human SK-HEP1 cells assessed as necrotic cells at 80 nM measured after 24 hrs by Annexin-V-FITC/PI analysis (reference value: 0.70%); type: functional
Huh-7 [12] = assay: Induction of apoptosis in human Huh-7 cells assessed as early apoptotic cells at 80 nM measured after 24 hrs by Annexin-V-FITC/PI analysis (reference value: 1.04%); type: functional
SK-HEP1 [13] = assay: Induction of cell cycle arrest in human SK-HEP1 cells assessed as accumulation of cells at G2 phase 80 nM measured after 24 hrs by flow cytometric assay (reference value: 22.41%); type: functional
Huh-7 [14] = assay: Induction of cell cycle arrest in human Huh-7 cells assessed as accumulation of cells at G2 phase 80 nM measured after 24 hrs by flow cytometric assay (reference value: 13.66%); type: functional
Huh-7 [15] = assay: In vivo antitumor activity against human Huh-7 cells subcutaneously injected into BALB/C nude mouse assessed as tumor growth inhibition at 10 mg/kg, ip administered once daily measured after 14 days; type: functional; details: Huh-7, 336 h, time 14 day, read-out: TGI
Huh-7 [16] = assay: Induction of cell cycle arrest in human Huh-7 cells assessed as accumulation of cells at G1 phase 80 nM measured after 24 hrs by flow cytometric assay (reference value: 63.01%); type: functional
SK-HEP1 [17] = assay: Induction of apoptosis in human SK-HEP1 cells assessed as early apoptotic cells at 80 nM measured after 24 hrs by Annexin-V-FITC/PI analysis (reference value: 1.45%); type: functional
SK-HEP1 [18] = assay: Induction of cell cycle arrest in human SK-HEP1 cells assessed as accumulation of cells at S phase 80 nM measured after 24 hrs by flow cytometric assay (reference value: 30.04%); type: functional
SK-HEP1 [19] = assay: Induction of cell cycle arrest in human SK-HEP1 cells assessed as accumulation of cells at G1 phase 80 nM measured after 24 hrs by flow cytometric assay (reference value: 47.55%); type: functional
SK-HEP1 [20] = assay: Induction of apoptosis in human SK-HEP1 cells assessed as loss of mitochondrial membrane potential by measuring JC-1 stained cells at 80 nM measured after 24 hrs by JC-1 staining based flow cytometry (reference value: 0.49%); type: functional
Huh-7 [21] = assay: Induction of apoptosis in human Huh-7 cells assessed as late apoptotic cells at 80 nM measured after 24 hrs by Annexin-V-FITC/PI analysis (reference value: 1.23%); type: functional

## CC(=O)Oc1ccc2[nH]c3c(c2c1)CCN1C(=O)c2cc(F)cc(F)c2N(c2cccc(F)c2)C31 (stereo unspecified)
[1]
  solubility thermodynamic at 72 h: 2.4 µg/mL (≈ 5.03 µM)
Huh-7 [2]
  IC50: 40 nM
Huh-7 [3]
  viability at 0.08 µM: 82.5%
Huh-7 [4]
  Activity: 17.42%
Huh-7 [5]
  Activity: 0.83%
SK-HEP1 [6]
  Activity: 57.06%
SK-HEP1 [7]
  Activity: 9.72%
Huh-7 [8]
  Activity: 11.77%
Huh-7 [9]
  Activity: 12.03%
SK-HEP1 [10]
  viability at 0.08 µM: 68.1%
SK-HEP1 [11]
  Activity: 0.85%
Huh-7 [12]
  Activity: 6.38%
SK-HEP1 [13]
  Activity: 64.96%
Huh-7 [14]
  Activity: 70.08%
Huh-7 [15]
  inhibition in vivo at 10 mg/kg: 40%
Huh-7 [16]
  Activity: 18.15%
SK-HEP1 [17]
  Activity: 21.32%
SK-HEP1 [18]
  Activity: 23.31%
SK-HEP1 [19]
  Activity: 11.73%
SK-HEP1 [20]
  Activity: 12.96%
Huh-7 [21]
  Activity: 10.32%
